Read-outs that look alike come from different tables or passages of the source. Starred links: 1 amine or outer side, 2 acyl side, 3 side chain; linkers in the order of their positions; H or OH if unused. Positions of bridges follow the written chain, without caps; N, C: chain ends. Non-standard residues stand in square brackets, D forms with d. Residues, ends and D or L forms follow the SMILES beside them. ξ: configuration not given here. *: point of attachment. pTerphenylCO(4''-OnC5H11) = CCCCCOc1ccc(-c2ccc(-c3ccc(C(=O)*)cc3)cc2)cc1; ξOrn(4,5-diOH) = O=C(C(CC(O)C(O)N[*:3])N[*:1])[*:2]; ξhTyr(βξ-OH,γξ-OH) = NC(C(=O)O)C(O)C(O)c1ccc(O)cc1; ξPro(3ξ-OH,4ξ-Me) = CC1CNC(C(=O)O)C1O; Hyp = O=C(O)[CH]1C[CH](O)CN1
How the values were obtained:
[1] = tested on: Trichomonas vaginalis G3 trophozoites; conditions: for T.vaginalis_Absorbance_Rep1: replicate 1, raw absorbance; for T.vaginalis_Absorbance_Rep2: replicate 2, raw absorbance
[2] = tested on: nontumorigenic neonatal foreskin fibroblast (NFF) cell line
[3] = parasite screen at 1 µg/mL, replicate 1
[4] = parasite screen at 1 µg/mL, replicate 2
[5] = NFF_NS1 screen at 5 µg/mL, NFF cells
[6] = replicate 1, parasite screen at 1 µg/mL
[7] = replicate 2, parasite screen at 1 µg/mL
[8] = HTS single concentration, parasite screen 1 µg/mL, replicate 1
[9] = HTS single concentration, parasite screen 1 µg/mL, replicate 2
[10] = NFF_NS1 screen 5 µg/mL, single concentration
[11] = HTS, parasite screen at 1 µg/mL, replicate 1
[12] = HTS, parasite screen at 1 µg/mL
[13] = HTS, parasite screen at 1 µg/mL, replicate 2

CO[C@H]1C[C@@H]2CC[C@@H](C)[C@@](O)(O2)C(=O)C(=O)N2CCCC[C@H]2C(=O)O[C@H]([C@H](C)C[C@@H]2CC[C@@H](OP(C)(C)=O)[C@H](OC)C2)CC(=O)[C@H](C)/C=C(\C)[C@@H](O)[C@@H](OC)C(=O)[C@H](C)C[C@H](C)/C=C/C=C/C=C/1C [BIA-R1450]
T.vaginalis_%inb_Rep1 [1, 3]: 8.81%
T.vaginalis_%inb_Rep2 [1, 4]: 19.01%
NFF_Activity [2, 5]: I (otherwise these were reported as inactive (I))

Cc1cc(O)c(C=O)c2c1C(=O)Oc1c(CO)c(O)c3c(c1O2)C(O)OC3=O (centres unmarked) [BIA-S1741]
T.vaginalis_%inb_Rep1 [1, 3]: 17.25%
T.vaginalis_%inb_Rep2 [1, 4]: 7.43%
NFF_Activity [2, 5]: I (otherwise these were reported as inactive (I))

Cc1cccc(O)c1C(=O)O [BIA-M1655]
T.vaginalis_%inb_Rep1 [1, 6]: 11.00%
T.vaginalis_%inb_Rep2 [1, 7]: 14.69%
NFF_Activity ([2]; NFF cells, screen at 5 µg/mL): I (otherwise these were reported as inactive (I))

Cc1cc(O)c(O)c2oc(=O)c3c(O)cc(O)cc3c12 [BIA-H1558]
T.vaginalis_%inb_Rep1 [1, 6]: 10.09%
T.vaginalis_%inb_Rep2 [1, 7]: 9.24%
NFF_Activity ([2]; NFF cells, screen at 5 µg/mL): I (otherwise these were reported as inactive (I))

CCCCCOc1ccc(-c2ccc(-c3ccc(C(=O)NC4CC(O)C(O)NC(=O)C5C(O)C(C)CN5C(=O)C(C(C)O)NC(=O)C(C(O)C(O)c5ccc(O)cc5)NC(=O)C5CC(O)CN5C(=O)C(C(C)O)NC4=O)cc3)cc2)cc1 (stereo not drawn) [BIA-A1423] ({pTerphenylCO(4''-OnC5H11)}-[ξOrn(4,5-diOH)]T[Hyp][ξhTyr(βξ-OH,γξ-OH)]T[ξPro(3ξ-OH,4ξ-Me)]; lactam 1-C; configuration not given here)
T.vaginalis_%inb_Rep1 [1, 8]: 14.75%
T.vaginalis_%inb_Rep2 [1, 9]: 12.08%
NFF_Activity [2, 10]: I (otherwise these were reported as inactive (I))

CC=CC(C)=CC(C)C(=O)CC(O)CC1CC(=O)NC(=O)C1 (centres unmarked) [BIA-M1404]
T.vaginalis_%inb_Rep1 [1, 8]: 18.76%
T.vaginalis_%inb_Rep2 [1, 9]: 13.41%
NFF_Activity [2, 10]: I (otherwise these were reported as inactive (I))

CC1(C)C=Cc2c(ccc3ccc(=O)oc23)O1 [BIA-S1776]
T.vaginalis_%inb_Rep1 [1, 3]: 12.88%
T.vaginalis_%inb_Rep2 [1, 4]: 13.28%
NFF_Activity [2, 5]: I (otherwise these were reported as inactive (I))

COc1c(OC)c(-c2c[nH]c3ccccc23)c(OC)c(OC)c1-c1c[nH]c2ccccc12 [BIA-A1630]
T.vaginalis_%inb_Rep1 [1, 8]: 13.41%
T.vaginalis_%inb_Rep2 [1, 9]: 14.03%
NFF_Activity [2, 10]: I (otherwise these were reported as inactive (I))

CC(=O)OC[C@]12C[C@H](OC(=O)CC(C)C)C(C)=C[C@H]1O[C@@H]1[C@H](O)[C@@H](OC(C)=O)[C@@]2(C)[C@]12CO2 [BIA-T1933]
T.vaginalis_%inb_Rep1 [1, 3]: 5.61%
T.vaginalis_%inb_Rep2 [1, 4]: 2.80%
NFF_Activity [2, 5]: I (otherwise these were reported as inactive (I))

CC(=O)OCC1=C[C@@H]2OC(=O)C3=CO[C@@H](O[C@@H]4O[C@H](CO)[C@@H](O)[C@H](O)[C@H]4O)[C@H]1[C@@H]32 [BIA-A1774]
T.vaginalis_%inb_Rep1 [1, 8]: 16.59%
T.vaginalis_%inb_Rep2 [1, 9]: 15.84%
NFF_Activity [2, 10]: I (otherwise these were reported as inactive (I))

CC[C@H]1OC(=O)[C@H](C)[C@@H](O[C@H]2C[C@@](C)(O)[C@@H](O)[C@H](C)O2)[C@H](C)[C@@H](O[C@@H]2O[C@H](C)C[C@H](N(C)C)[C@H]2O)[C@](C)(O)C[C@@H](C)C(=O)[C@H](C)[C@@H](O)[C@]1(C)O [Erythromycin C]
T.vaginalis_%inb_Rep1 [1, 11]: 5.17%
T.vaginalis_Absorbance_Rep1 [1, 12]: 0.805
T.vaginalis_%inb_Rep2 [1, 13]: 6.87%
T.vaginalis_Absorbance_Rep2 [1, 12]: 0.715
NFF_Activity ([2]; NFF_NS1 screen at 5 µg/mL): I (otherwise these were reported as inactive (I))

O=C1C=CC(=O)c2c(O)cccc21 [BIA-J1739]
T.vaginalis_%inb_Rep1 [1, 6]: 12.73%
T.vaginalis_%inb_Rep2 [1, 7]: 10.78%
NFF_Activity ([2]; NFF cells, screen at 5 µg/mL): A (active (A) compounds having >25% inhibitory activity)

COC(=O)C1=CO[C@@H](C)[C@@H]2CN3CCc4c([nH]c5cc(OC)c(OC)cc45)[C@H]3C[C@H]12 [BIA-R1946]
T.vaginalis_%inb_Rep1 [1, 3]: 11.06%
T.vaginalis_%inb_Rep2 [1, 4]: 13.59%
NFF_Activity [2, 5]: I (otherwise these were reported as inactive (I))

CN[C@@H]1C[C@H]2O[C@@](C)([C@@H]1OC)n1c3ccccc3c3c4c(c5c6ccccc6n2c5c31)C(=O)NC4 [BIA-S1086]
T.vaginalis_%inb_Rep1 [1, 3]: 72.52%
T.vaginalis_%inb_Rep2 [1, 4]: 83.24%
NFF_Activity [2, 5]: A (active (A) compounds having >25% inhibitory activity)

CC1=CC2C(O)CCCC2C(C)(C(O)=C2C(=O)CNC2=O)C1CCC(C)C(O)/C(C)=C/CC(O)/C=C/C(C)C(O)/C=C/CC(O)/C=C/CC(O)CC1CCCN1C(=N)N (centres unmarked) [TPU-0037C]
T.vaginalis_%inb_Rep1 [1, 11]: 9.28%
T.vaginalis_%inb_Rep2 [1, 13]: 14.69%
NFF_Activity ([2]; NFF fibroblast screen at 5 µg/mL, A = active, I = inactive): I (otherwise these were reported as inactive (I))

COc1ccc2c(c1OC)C(=O)O[C@@H]2[C@H]1c2c(cc3c(c2OC)OCO3)CCN1C [Narcotine]
T.vaginalis_%inb_Rep1 ([1]; HTS replicate 1, parasite screen 1 µg/mL): 11.80%
T.vaginalis_%inb_Rep2 ([1]; HTS replicate 2, parasite screen 1 µg/mL): 11.76%
NFF_Activity ([2]; NFF fibroblasts, single concentration 5 µg/mL): I (otherwise these were reported as inactive (I))

COc1cc2c(c3oc4cccc(O)c4c(=O)c13)[C@@H]1C=CO[C@@H]1O2 [BIA-S1213]
T.vaginalis_%inb_Rep1 [1, 3]: 10.12%
T.vaginalis_%inb_Rep2 [1, 4]: 14.32%
NFF_Activity [2, 5]: I (otherwise these were reported as inactive (I))

C=C1[C@@H](C)[C@H]2[C@H](Cc3ccccc3)NC(=O)[C@]23[C@H](OC(C)=O)[C@@H]2O[C@H]2[C@@](C)(O)C(=O)[C@@H](C)C/C=C\[C@H]3[C@@H]1O [Epoxycytochalasin D, 19,20-]
T.vaginalis_%inb_Rep1 [1, 11]: 12.71%
T.vaginalis_Absorbance_Rep1 [1, 12]: 0.945
T.vaginalis_%inb_Rep2 [1, 13]: 12.22%
T.vaginalis_Absorbance_Rep2 [1, 12]: 0.789
NFF_Activity ([2]; NFF_NS1 screen at 5 µg/mL): I (otherwise these were reported as inactive (I))

O=c1cccc2n1C[C@H]1C[C@@H]2CN2CCCC[C@H]12 [BIA-A1939]
T.vaginalis_%inb_Rep1 [1, 8]: 7.92%
T.vaginalis_%inb_Rep2 [1, 9]: 14.14%
NFF_Activity [2, 10]: I (otherwise these were reported as inactive (I))

Cc1cc2nc3c(=O)[nH]c(=O)nc-3n(C[C@H](O)[C@H](O)[C@H](O)CO)c2cc1N(C)C [BIA-R1535]
T.vaginalis_%inb_Rep1 [1, 3]: 11.33%
T.vaginalis_%inb_Rep2 [1, 4]: 14.32%
NFF_Activity [2, 5]: I (otherwise these were reported as inactive (I))

CCCCCCCCCCCCCCCC(=O)N[C@H]1CCOC1=O [BIA-H1500]
T.vaginalis_%inb_Rep1 [1, 6]: 13.84%
T.vaginalis_%inb_Rep2 [1, 7]: 11.55%
NFF_Activity ([2]; NFF cells, screen at 5 µg/mL): I (otherwise these were reported as inactive (I))

C=C1c2c(Cl)ccc(O)c2C(O)=C2C(=O)C3(O)C(O)=C(C(N)=O)C(=O)C(N(C)C)C3C(O)C12 (centres unmarked) [BIA-M1464]
T.vaginalis_%inb_Rep1 [1, 6]: 17.14%
T.vaginalis_%inb_Rep2 [1, 7]: 5.39%
NFF_Activity ([2]; NFF cells, screen at 5 µg/mL): I (otherwise these were reported as inactive (I))

COc1cc(/C=C/C(=O)O)ccc1O [Ferulic acid]
T.vaginalis_%inb_Rep1 [1, 11]: 13.69%
T.vaginalis_Absorbance_Rep1 [1, 12]: 0.972
T.vaginalis_%inb_Rep2 [1, 13]: 12.64%
T.vaginalis_Absorbance_Rep2 [1, 12]: 0.832
NFF_Activity ([2]; NFF_NS1 screen at 5 µg/mL): I (otherwise these were reported as inactive (I))

Echinocandin B
T.vaginalis_%inb_Rep1 [1, 11]: 15.24%
T.vaginalis_Absorbance_Rep1 [1, 12]: 0.992
T.vaginalis_%inb_Rep2 [1, 13]: 6.58%
T.vaginalis_Absorbance_Rep2 [1, 12]: 0.711
NFF_Activity ([2]; NFF_NS1 screen at 5 µg/mL): I (otherwise these were reported as inactive (I))

O=C(N[C@H](COC(=O)[C@H](Cc1ccccc1)NC(=O)c1ccccc1)Cc1ccccc1)c1ccccc1 [BIA-A1643]
T.vaginalis_%inb_Rep1 [1, 8]: 13.09%
T.vaginalis_%inb_Rep2 [1, 9]: 15.04%
NFF_Activity [2, 10]: I (otherwise these were reported as inactive (I))

CCC[C@@H]1C[C@@H](C(=O)N[C@@H]([C@H]2O[C@H](SC)[C@H](O)[C@@H](O)[C@H]2O)[C@@H](C)O)N(C)C1 [BIA-L1457]
T.vaginalis_%inb_Rep1 [1, 6]: 12.27%
T.vaginalis_%inb_Rep2 [1, 7]: 9.94%
NFF_Activity ([2]; NFF cells, screen at 5 µg/mL): I (otherwise these were reported as inactive (I))

CC[C@H]1OC(=O)[C@H](C)[C@@H](O[C@H]2C[C@@](C)(OC)[C@@H](O)[C@H](C)O2)[C@H](C)[C@@H](O[C@@H]2O[C@H](C)C[C@H](N(C)C)[C@H]2O)[C@@]2(C)CC(C)=C(O2)[C@H](C)[C@@H](O)[C@]1(C)O [Erythromycin A enol ether]
T.vaginalis_%inb_Rep1 [1, 11]: 5.17%
T.vaginalis_Absorbance_Rep1 [1, 12]: 0.805
T.vaginalis_%inb_Rep2 [1, 13]: 18.87%
T.vaginalis_Absorbance_Rep2 [1, 12]: 0.881
NFF_Activity ([2]; NFF_NS1 screen at 5 µg/mL): I (otherwise these were reported as inactive (I))

Cc1c2c(c(O)c3c(O)ccc(Cl)c13)C(=O)C1(O)C(O)=C(C(N)=O)C(=O)C(N(C)C)C1C2.Cl (centres unmarked)
T.vaginalis_%inb_Rep1 [1, 11]: 10.90%
T.vaginalis_Absorbance_Rep1 [1, 12]: 0.917
T.vaginalis_%inb_Rep2 [1, 13]: 9.56%
T.vaginalis_Absorbance_Rep2 [1, 12]: 0.784

From publication PMC7897990, “TriTOX: A novel Trichomonas vaginalis assay platform for high-throughput screening of compound libraries” (International Journal for Parasitology: Drugs and Drug …, 2021)
